No end group written: not given here. *: point of attachment. β‑D‑cellobiosyl = OC[C@H]1O[C@@H](O[C@H]2[C@H](O)[C@@H](O)[C@H](*)O[C@@H]2CO)[C@H](O)[C@@H](O)[C@@H]1O; β‑D‑lactosyl = OC[C@H]1O[C@@H](O[C@H]2[C@H](O)[C@@H](O)[C@H](*)O[C@@H]2CO)[C@H](O)[C@@H](O)[C@H]1O; β‑D‑maltosyl = OC[C@H]1O[C@H](O[C@H]2[C@H](O)[C@@H](O)[C@H](*)O[C@@H]2CO)[C@H](O)[C@@H](O)[C@@H]1O; α‑D‑GlcNAc = CC(=O)N[C@@H]1[C@@H](O)[C@H](O)[C@@H](CO)O[C@@H]1*; βGlc = OC[C@H]1O[C@@H](*)[C@H](O)[C@@H](O)[C@@H]1O; βGal = OC[C@H]1O[C@@H](*)[C@H](O)[C@@H](O)[C@H]1O
Tests used:
[1] = tested on: in vitro translation, E. coli PURExpress system, firefly luciferase (Fluc) mRNA; conditions: using the same system; cited from earlier work
Method: Unmodified wild-type drosocin and Dro-3P have been reported to inhibit in vitro translation reactions[25],[26]; however, the naturally occurring glycosylated forms of drosocin have not been previously tested. To investigate this, we compared the effect of increasing concentrations (0–150 μM) of modified Dro1 and Dro2 with unmodified Dro, Dro-3P and Api137 using a cell-free in vitro translation system and firefly luciferase (Fluc) mRNA as a template (Fig. 1e), as we have used previously for assessing the activity of other PrAMPs[4],[6],[8],[9],[32],[33].

[2] = tested on: E. coli Keio wt (BW25113); assay: Antibiotic susceptibility (growth) assay, E. coli Keio wild-type; type: cell-based, Escherichia coli; conditions: 30 μM peptide; for Average of normalized growth: average of three biological replicates; for growth inhibition in rich medium: rich (LB) medium
Source text: (§1) Many PrAMPs use the SbmA transporter to pass through the E. coli inner membrane[4],[10],[31]; however, whether drosocin also uses SbmA remains, to our knowledge, unknown. To address this, we monitored the effect of the presence of diverse drosocin peptides (Fig. 1a,b and Supplementary Fig. 1a) on the growth of the wild-type E. coli strain BW25113 containing SbmA or lacking SbmA (ΔsbmA) (Fig. 1c,d). We compared unmodified drosocin (Dro) with various modified forms (Fig. 1a,b). The modified forms included the naturally occurring Dro1 and Dro2 that carry either a monosaccharide (α-D-GalNAc) or disaccharide (β-D-Gal(1→3)-α-D-GalNAc) attached to Thr11, respectively (Fig. 1b). In addition, we examined the previously reported[23],[24] drosocin derivatives bearing β-D-Maltosyl (Dro3), α-D-GlcNAc (Dro4), β-D-Gal (Dro5), β-D-Glc (Dro6), β-D-Lactosyl (Dro7) and β-D-Cellobiosyl (Dro8) modifications on Thr11 (Fig. 1a,b and Supplementary Fig. 1a). Finally, we also included in our analysis the synthetic unmodified drosocin derivative with proline substitutions at positions 7, 11 and 12 (Dro-3P) (Fig. 1a), which was previously reported to have similar antimicrobial activity to the monosaccharide form of drosocin[25]. Growth was monitored in both rich (LB) and minimal medium in the presence of 30 μM of each peptide and normalized with the growth in the absence of the compounds (Methods). […] We also observed no inhibition for Dro2 nor for any of the β-linked disaccharides (Dro3, Dro6 or Dro7). […] By contrast, all drosocin peptides inhibited growth of the E. coli BW25113 strain in minimal medium, albeit to different extents (Fig. 1d).
(§2) Strains E. coli Keio wild-type and E. coli Keio ΔsbmA used from the Keio knockout collection (Horizon, https://horizondiscovery.com). Wild-type E. coli SQ110 (ΔrrnGADBHC(ptRNA67))[47] and SQ171 (ΔrrnGADEHBC(pKK3535, ptRNA67))[47] strains and related mutants E. coli SQ110 A2059G and E. coli SQ171 A2503G were obtained from the previous Api137 study. E. coli strains SQ171 bearing A752G, U2609C and A752G:U2609C mutations[43] and E. coli SQ171 U2609G[48] were generated previously.
(§3) The susceptibility of E. coli strains to compounds was evaluated by monitoring the bacterial growth in presence of increasing concentrations of the compound of interest. In brief, bacteria were inoculated in a total volume of 100 μl of medium contained in a well of a 96-well microplate (round bottom, with cap, sterile; Sarstedt). The medium used was either LB, as rich medium, or ATCC medium (778 Davis and Mingioli glucose minimal medium), as minimal medium. Before inoculation, bacteria were grown up to exponential phase and then inoculated into the culture mix, containing selective antibiotic if necessary, with an initial optical density at 600 nm (OD600) of 0.05. Values measured from wells containing just the medium were used as a blank. The growth in each well was monitored by measuring the OD600 every 10 minutes for a total of 20 hours at 37 °C with shaking using a plate reader (Tecan Infinite 200 PRO). The inhibition resulting from a compound’s concentration was evaluated by normalizing the OD600 at t = 12 hours (corresponding to the end of the log phase) from the treated culture to the untreated one. For each compound, the concentrations tested were 5 μM, 10 μM and 30 μM. Each single titration assay was done in triplicate with individually prepared culture mixes. For each concentration, the standard deviation was calculated, taking into account each single replica and its specific technical error from the plate reader.

[3] = tested on: E. coli Keio ∆sbmA (BW25113 ΔsbmA); assay: Antibiotic susceptibility (growth) assay, E. coli Keio ΔsbmA; type: cell-based, Escherichia coli; conditions: 30 μM peptide, average of three biological replicates
Source text: as §1, §2, §3

[4] = tested on: in vitro translation, E. coli PURExpress system, firefly luciferase (Fluc) mRNA; assay: In vitro translation assay with Fluc reporter; type: biochemical, Escherichia coli
Method: To investigate this, we compared the effect of increasing concentrations (0–150 μM) of modified Dro1 and Dro2 with unmodified Dro, Dro-3P and Api137 using a cell-free in vitro translation system and firefly luciferase (Fluc) mRNA as a template (Fig. 1e), as we have used previously for assessing the activity of other PrAMPs[4],[6],[8],[9],[32],[33].
The in vitro translation assay was carried out as described previously[4],[8] using the E. coli PURExpress system (New England Biolabs (NEB), E6800S). Then, 1 µl of antibiotic solution was added to 5 µl of PURExpress reaction mix. Each reaction contained 10 ng μl^−1 of mRNA encoding the Fluc, which was in vitro transcribed from a pIVEX-2.3MCS vector containing the Fluc gene using T7 polymerase (Thermo Fisher Scientific). The reaction mix was incubated for 30 minutes at 32 °C while shaking (600 r.p.m.). Reactions were stopped with 5 µl of kanamycin (50 mg ml^−1) and transferred into a 96-well microplate (Greiner Lumitrac, non-binding, white, chimney). Next, 40 µl of luciferase assay substrate solution (Promega, E1501) was added, and luminescence was measured using a plate reader (Tecan Infinite 200 PRO). Nuclease-free water was added instead of antibiotic as control. Absolute luminescence values were normalized using reactions without antibiotic. All assays were done as triplicates with individually prepared reaction mix.

[5] = tested on: ribosomes at the stop codon of MLIF-UAA mRNA in the presence of RF1; assay: Toeprinting assay on MLIF*-mRNA with RF1; type: biochemical, Escherichia coli; conditions: for Relative stop band intensity signal: 30 μM compound, MLIF*-mRNA, plotted values
Method: (§4) To ascertain which step during protein synthesis is affected by drosocin, we performed toeprinting assays, where reverse transcription is used to monitor the position of ribosomes on a defined mRNA[34].
(§5) Toeprinting reactions were performed as described previously. In brief, reactions were performed with 6 μl of PURExpress ΔRF123 in vitro protein synthesis system (NEB) in the presence of 1× RF3 and either 1× or 10× of RF1 or RF2 (relative to the manufacturer’s recommendation). The reactions were carried out on an MLIF-UAA-toeprint template (5′-[…]-3′, ORF start codon and stop codon are underlined bold), containing T7 promoter, a ribosome binding site, an MLIF-coding ORF and the NV1* primer binding site. The template is a version of the ErmBL template with a truncated ORF and addition of a isoleucine coding codon at the third position in the ORF. The template was generated by polymerase chain reaction of two overlapping 77-nt- and 78-nt-long primers. The reactions contained 30 ng of the MLIF-UAA-toeprint DNA template. The reactions were supplemented with Api137, thiostrepton or one of the drosocin derivates as specified. The transcription–translation reactions were incubated for 15 minutes at 37 °C. The reverse transcription on the MLIF-short-UAA toeprint template was carried out using AMV RT and primer NV*1-Alexa 647 (5′-[…]-3′). The transcription–translation reactions were incubated with AMV RT and NV*1-Alexa 647 for 20 minutes at 37 °C. mRNA degradation was carried out by the addition of 1 µl of 5 M NaOH. The reactions were neutralized with 0.7 µl of 25% HCl, and nucleotide removal was performed with the QIAquick Nucleotide Removal Kit (Qiagen). The samples were dried under vacuum for 2 hours at 60 °C for subsequent gel electrophoresis. The 6% acrylamide gels were scanned on a Typhoon scanner (GE Healthcare).

[6] = tested on: ribosomes at the stop codon of MLIF-UAA mRNA in the presence of RF2; assay: Toeprinting assay on MLIF*-mRNA with RF2; type: biochemical, Escherichia coli; conditions: Fig 1h, RF2 (10X), 30 μM compound, plotted values
Method: as §4, §5

Substance | IC50 [1] [nM] | Average of normalized growth ([2]; LB rich medium) [%] | Average of normalized growth ([2]; Minimal medium) [%] | growth inhibition in rich medium [2] | Average of normalized growth ([3]; LB rich medium) [%] | Average of normalized growth ([3]; Minimal medium) [%] | maximum inhibition of in vitro translation ([4]; at the highest concentration tested of 150 μM, Fluc mRNA, luminescence) [%] | Relative stop band intensity signal ([5]; Fig 1f, RF1 (1X)) | Relative stop band intensity signal ([5]; Fig 1g, RF1 (10X)) | Relative stop band intensity signal [6] | stalling of ribosomes at the stop codon ([5]; toeprinting, 30 μM peptide, 1× or 10× RF1 (trend also with ten-fold RF2)) | activity in in vitro translation assays ([4]; Fluc reporter, increasing concentrations of peptide)
Bac7: type I PrAMP of mammalian origin (RRIRPRPPRLPRPRPRPLPFPRPGPRPIPRPLPFPRPGPRPIPRPLPFPRPGPRPIPRP; Bactenecin 7; UniProt P19661 131-189, looked up) | < 1000 |  |  |  |  |  |  |  |  |  |  | 
Dro2: naturally occurring drosocin carrying disaccharide β-D-Gal(1→3)-α-D-GalNAc attached to Thr11 (GKPRPYSPRPTSHPRPIRV; not fully specified (residue 11); UniProt P36193 22-40, looked up) |  | 92 | 25 | no inhibition | 96 | 101 | 40 | 0.3007 | 0.625 | 0.06699 |  | 
Dro3: drosocin derivative bearing β-D-Maltosyl on Thr11 (GKPRPYSPRPT(β‑D‑maltosyl)SHPRPIRV; UniProt P36193 22-40, looked up) |  | 97 | 41 | no inhibition | 97 | 105 |  | 0.2727 | 0.5086 | 0.02902 |  | 
Dro4: drosocin derivative bearing α-D-GlcNAc on Thr11 (GKPRPYSPRPT(α‑D‑GlcNAc)SHPRPIRV; UniProt P36193 22-40, looked up) |  | 60 | 38 | growth inhibition | 97 | 103 |  | 0.3375 | 0.6077 | 0.166 | to a lesser extent | 
Dro5: drosocin derivative bearing β-D-Gal on Thr11 (GKPRPYSPRPT(βGal)SHPRPIRV; UniProt P36193 22-40, looked up) |  | 93 | 24 | no inhibition | 100 | 107 |  | 0.2051 | 0.5557 | 0.04941 |  | 
Dro6: drosocin derivative bearing β-D-Glc on Thr11 (GKPRPYSPRPT(βGlc)SHPRPIRV; UniProt P36193 22-40, looked up) |  | 94 | 72 | no inhibition | 99 | 106 |  | 0.04582 | 0.4077 | 0.01282 |  | 
Dro7: drosocin derivative bearing β-D-Lactosyl on Thr11 (GKPRPYSPRPT(β‑D‑lactosyl)SHPRPIRV; UniProt P36193 22-40, looked up) |  | 97 | 50 | no inhibition | 101 | 109 |  | 0.1333 | 0.3035 | 0.0472 |  | 
Dro8: drosocin derivative bearing β-D-Cellobiosyl on Thr11 (GKPRPYSPRPT(β‑D‑cellobiosyl)SHPRPIRV; UniProt P36193 22-40, looked up) |  | 97 | 85 |  | 102 | 112 |  | 0.1518 | 0.3011 | 0.03669 |  | 
Dro-R18A (GKPRPYSPRPTSHPRPIAV; ends and bridges not checked; UniProt P36193 22-40, looked up, variant R18A) |  |  |  |  |  |  |  |  |  |  |  | complete loss of activity
